Assay results taken from US8207206B2, “(S,R)-3-phenyl-4,5 dihydro-5-isoxazole acetic acid-nitric oxide and use thereof as anti-cancer and antiviral agent” (OncoNOx APS, priority 2007, dated 2012).

Legend:
[1] = test system: MAP kinases (p38 MAPK, ERK, JNK) in L929 cells; assay: Cell-based ELISA for activation of MAP kinases; set-up: species or system mouse; conditions: L929, 25 μg/ml, time course
Description: (§1) Activation of MAP kinases (p38 MAPK, extracellular signal-regulated kinase—ERK, and Jun-N-terminal kinase—JNK) or nuclear factor-κB (NF-κB) was determined by means of a slightly modified method of cell-based ELISA by Versteeg et al. (Versteeg 2000). Since MAP kinases are activated by phosphorylation, and phosphorylation of the inhibitory subunit IκB is a necessary step for NF-κB activation, we used antibodies specific for phosphorylated forms of MAP kinases (p-p38, p-ERK and p-JNK) and IκB (p-IκB). The cells were grown overnight in 96-well flat-bottom plates in a culture medium containing 0.5% FCS and then treated with the test compound diluted in conventional culture medium. At the end of treatment period the cells were fixed in 4% parformaldehyde, endogenous peroxydase was quenched with 1% H2O2 in PBS containing 0.1% Triton X-100 (PBST), and unspecific binding of antibodies was blocked with a PBST solution containing 10% FCS. Primary mouse monoclonal antibodies specific for rat/mouse p-ERK, p-p38, p-JNK, p-IκB (1:200; all from Santa Cruz Biotechnology, Santa Cruz, Calif.) were applied in PBST supplemented with 2% bovine serum albumine (PBSTB), followed by secondary peroxidase-conjugated goat anti-mouse IgG (1:2500 in PBSTB; USB corporation, Cleveland, Ohio) for anti-p-ERK, anti-p-JNK and anti-p-IκB, or anti-mouse IgM (1:4000; USB corporation) for detection of anti-p-p38. Incubation with antibodies was carried out at 37° C. for 1 h. After 15 min incubation with peroxydase substrate TMB and subsequent addition of 0.1 M HCl, the absorbance at 450 nm was measured in an automated microplate reader. To enable comparison between treatment and control, the resulting absorbances were corrected for the cell number determined by crystal violet staining, as described in the original protocol. The results are presented as relative expression in comparison with the control value, which was arbitrarily set to 1.

[2] = test system: MAP kinases (p38 MAPK, ERK, JNK) in B16 cells; assay: Cell-based ELISA for activation of MAP kinases; set-up: species or system mouse; conditions: B16, 25 μg/ml, time course
Description: as §1

[3] = test system: ConA-induced hepatitis; assay: Hepatitis induced by concanavalin (ConA) injection in NMRI mice; type: in vivo; conditions: prophylactic, all tested doses (0.5 and 1 i.p., 5 mg/mouse p.o.), -24 and -1 h prior to ConA, blood 8 h after ConA, vs vehicle
Description: ConA-induced hepatitis is a cell-mediated immunoinflammatory condition similar to different immunoinflammatory conditions of liver diseases in humans that can be induced in mice by a single intravenous injection of ConA. This disease is characterized by a marked increase in the plasma levels of transaminase shortly (8-24 hours) after ConA challenge and simultaneous infiltration of the liver with neutrophils, macrophages and T cells followed by apoptosis and necrosis of the hepatocytes.
Hepatitis was induced by ConA (Sigma Chemical, St. Louis, Mo.) injection into the tail veins in six to 9 weeks Naval Medical Research Institute (NMRI) male mice. Four groups of mice were treated or i.p. with Git27-NO at the doses of 0.5 and 1 or p.o. at 5 mg/mouse or with the vehicle, −24 and −1 hours prior to ConA. The animals were sacrificed for blood collection 8 hours after Con A injection and plasma alanine aminotransferase (ALT) activity was determined by a standard photometric assay using a bichromatic analyzer.

[4] = test system: C6 rat astrocytoma cells; assay: MTT / CV cell viability test; type: cell-based; conditions: 24 h
Description: (§2) Rat glioma cell line C6 was a kind gift from Dr. Pedro Tranque (Universidad de Castilla-La Mancha, Albacete, Spain), murine melanoma B16 cell line was a kind gift from Dr. Sinisa Radulovic (Institute for Oncology and Radiology of Serbia, Belgrade, Serbia) while mouse fibrosarcoma L929 was obtained from the European Collection of Animal Cell Cultures (Salisbury, UK). Cells were grown in HEPES-buffered RPM, 1640 medium supplemented with 5% FCS, 2 mM glutamine, 0.01% sodium pyruvate, 5×10^−5 M 2-mercaptoethanol and antibiotics (culture medium) at 37° C. in a humidified atmosphere with 5% CO2. After conventional trypsinization the cells were seeded at a concentration of 10^4 cells/well in a 96-well plate, of 2×10^5 cells/well in a 6-well plate or at 3×10^4 cells/well in a 4-well chamber slide, cultivated overnight, and then exposed to the test compound.
(§3) The cells were seeded in flat-bottom 96-well plates (10^4 cells/well) in a final volume of 200 μl of culture medium, incubated overnight, then treated with different concentrations of the test compound. After 24 h incubation, cell viability was assessed using 3-4,5-dimethylthiazol-2-yl)-2,5-diphenyltetrazolium bromide (MTT) test, based on the mitochondrial-dependent reduction of MTT to formazan, or by crystal violet (CV) staining of adherent cells, as previously described (Mijatovic et al CMLS 2004). The results are presented as % of control values obtained in untreated cultures. The rate of cell proliferation was also determined using flow cytometric analysis of cells labeled with CFSE (Kang 2005). The cells were detached, added with 1.5 μM CFSE and allowed to stand for 15 min at 37° C., then washed twice and seeded in 6-well plates at 2×10^5. The cells were treated with the compound for 24 and 48 h, trypsinized and washed twice. Finally, the cells were resuspended in PBS and analyzed by flow cytometry. Green fluorescence emission from cells illuminated with excitation light of 488 nm was measured with a FACS Calibur (BD, Heidelberg, Germany) and analyzed using the CellQuest software.

[5] = test system: B16 mouse melanoma cells; assay: MTT / CV cell viability test; type: cell-based; conditions: 24 h
Description: as §2, §3

[6] = test system: L929 mouse fibrosarcoma cells; assay: MTT / CV cell viability test; type: cell-based; conditions: 24 h
Description: as §2, §3

[7] = test system: MAP kinases (p38 MAPK, ERK, JNK) in C6 cells; assay: Cell-based ELISA for activation of MAP kinases; set-up: species or system rat; conditions: C6, 25 μg/ml, time course
Description: as §1

N#Cc1c(COC(=O)CC2CC(c3ccccc3)=NO2)no[n+]1[O-] (racemic) [GIT27-NO, (S,R)-3-phenyl-4,5 dihydro-5-isoxazole acetic acid-nitric oxide]
activation of ERK1/2 [1]: marked and sustained activation
activation of p38 [1]: significant transient activation
expression (activation) of JNK [1]: without affecting the expression
activation of ERK1/2 [2]: did not affect the activation
activation of JNK [2]: significant time-dependent activation
activation of p38 [2]: only slight activation
plasma ALT activity [3]: significantly reduced
viability (MTT) of GIT27-NO treated cells in the presence of autophagic inhibitors ([4]; C6, GIT27-NO 25 μg/ml, 3-MA 1 mg/ml or Baf 0.5 μM): recovered
survival (MTT) of GIT27-NO treated cells with specific MAP kinase inhibitors ([4]; C6, GIT27-NO 25 μg/ml, ERK inhibitor PD98059 50 μM, JNK inhibitor SP600125 0.75 μM): significantly improved the survival
viability (MTT) of GIT27-NO treated cells with ROS scavenger NAC ([4]; C6, GIT27-NO 25 μg/ml, NAC 2.5 μM): restored the viability
viability (MTT) of GIT27-NO treated cells with PTK inhibitor tyrphostin ([4]; C6, GIT27-NO 25 μg/ml, tyrphostin 5 μM): almost completely restored the viability
viability (MTT) of GIT27-NO treated cells in parallel with NO-scavenger hemoglobin ([4]; C6, hemoglobin 12.5 μM, GIT27-NO 25 mg/ml (as printed in b12)): almost completely restored
cell viability (MTT, mitochondrial respiration) ([4]; C6 cells, different concentrations, cell number also reduced by CV): dose-dependent reduction of mitochondrial respiration
viability (MTT) of GIT27-NO treated cells in the presence of autophagic inhibitors ([5]; B16, GIT27-NO 25 μg/ml, 3-MA 1 mg/ml or Baf 0.5 μM): recovered
survival (MTT) of GIT27-NO treated cells with specific MAP kinase inhibitors ([5]; B16, GIT27-NO 25 μg/ml, JNK inhibitor SP600125 0.75 μM): significantly improved the survival
viability (MTT) of GIT27-NO treated cells with ROS scavenger NAC ([5]; B16, GIT27-NO 25 μg/ml, NAC 2.5 μM): restored the viability
viability (MTT) of GIT27-NO treated cells with PTK inhibitor tyrphostin ([5]; B16, GIT27-NO 25 μg/ml, tyrphostin 5 μM): almost completely restored the viability
cell viability (MTT, mitochondrial respiration) ([5]; B16 cells, different concentrations, cell number also reduced by CV): dose-dependent reduction of mitochondrial respiration
survival (MTT) of GIT27-NO treated cells with specific MAP kinase inhibitors ([6]; L929, GIT27-NO 25 μg/ml, ERK inhibitor PD98059 50 μM, p38 inhibitor SB202190 20 μM): significantly improved the survival
viability (MTT) of GIT27-NO treated cells with ROS scavenger NAC ([6]; L929, GIT27-NO 25 μg/ml, NAC 2.5 μM): restored the viability
viability (MTT) of GIT27-NO treated cells with PTK inhibitor tyrphostin ([6]; L929, GIT27-NO 25 μg/ml, tyrphostin 5 μM): almost completely restored the viability
cell viability (MTT, mitochondrial respiration) ([6]; L929 cells, different concentrations, cell number also reduced by CV): dose-dependent reduction of mitochondrial respiration
activation of ERK1/2 [7]: permanent activation
activation of JNK [7]: permanent activation
activity of p38 [7]: not affected
